≈ marks a conversion by molar mass, not a printed value.
Biological target: T1, intestinal α-glucosidase
T1 construct: gene SI; called intestinal, sucrose as substrate (points to sucrase-isomaltase), but a commercial yeast enzyme cannot be excluded; docking model 2QMJ is human maltase-glucoamylase
Assay: sucrose hydrolysis, glucose oxidase-peroxidase, absorbance at […] nm
Type: biochemical
Details: phosphate pH 7.5, 37 °C, 20 min pre-incubation, positive control

C[C@H]1O[C@H](O[C@H]2[C@H](O)[C@@H](O)[C@@H](O[C@H]3[C@H](O)[C@@H](O)C(O)O[C@@H]3CO)O[C@@H]2CO)[C@H](O)[C@@H](O)[C@@H]1N[C@H]1C=C(CO)[C@@H](O)[C@H](O)[C@H]1O (stereo partly shown) [acarbose]
IC50: 0.059 ± 0.009 mg/mL (≈ 91.4 µM)
